ChEMBL document CHEMBL2074544 (J Lipid Res, 2000)

Columns and labels:
[1] = biological target: T1, Oct1 (Solute carrier family 22 member 1) (Mus musculus, UniProt O08966); assay: in vitro; settings: BALB/3T3 cells expressing Oct1, probe TEA (50 uM)
T1 sequence (O08966 whole entry): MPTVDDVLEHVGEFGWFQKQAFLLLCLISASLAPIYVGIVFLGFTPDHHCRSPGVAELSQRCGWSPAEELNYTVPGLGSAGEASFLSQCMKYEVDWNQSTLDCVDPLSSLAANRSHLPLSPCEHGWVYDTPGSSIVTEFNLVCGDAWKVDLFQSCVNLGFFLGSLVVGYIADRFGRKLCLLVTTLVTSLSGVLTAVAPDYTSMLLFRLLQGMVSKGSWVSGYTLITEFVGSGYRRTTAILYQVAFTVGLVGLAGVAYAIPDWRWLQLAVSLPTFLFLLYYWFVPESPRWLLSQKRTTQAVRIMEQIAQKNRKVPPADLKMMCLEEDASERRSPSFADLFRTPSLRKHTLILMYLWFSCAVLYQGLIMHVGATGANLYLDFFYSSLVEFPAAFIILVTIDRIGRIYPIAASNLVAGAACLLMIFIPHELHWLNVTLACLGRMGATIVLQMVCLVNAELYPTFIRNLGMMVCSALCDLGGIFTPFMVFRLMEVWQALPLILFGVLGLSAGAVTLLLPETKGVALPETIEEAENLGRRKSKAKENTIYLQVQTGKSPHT
Description: TP_TRANSPORTER: inhibition of TEA uptake (TEA: 50 uM, Thiamine: 10000 uM) in Oct1-expressing BALB/3T3 cells

[2] = biological target: T1, Oct1 (Solute carrier family 22 member 1); assay: TP_TRANSPORTER: inhibition of TEA uptake (TEA: 50 uM, Quinidine: 1000 uM) in Oct1-expressing BALB/3T3 cells; type: functional, cell-based; set-up: scale not given: the % may be the effect or the level left; settings: BALB/3T3 cells expressing Oct1, probe TEA (50 uM), read-out: Activity
[3] = biological target: T1, Oct1 (Solute carrier family 22 member 1); assay: TP_TRANSPORTER: inhibition of TEA uptake (TEA: 50 uM, NMN: 10000 uM) in Oct1-expressing BALB/3T3 cells; type: functional, cell-based; set-up: scale not given: the % may be the effect or the level left; settings: BALB/3T3 cells expressing Oct1, probe TEA (50 uM), read-out: Activity
[4] = biological target: T2, Solute carrier family 22 member 1 (Mus musculus, UniProt O08966); assay: TP_TRANSPORTER: inhibition of TEA uptake (TEA: 50 uM, TMA: 10000 uM) in Oct1-expressing BALB/3T3 cells; type: functional, cell-based; set-up: scale not given: the % may be the effect or the level left
T2 sequence (O08966 whole entry): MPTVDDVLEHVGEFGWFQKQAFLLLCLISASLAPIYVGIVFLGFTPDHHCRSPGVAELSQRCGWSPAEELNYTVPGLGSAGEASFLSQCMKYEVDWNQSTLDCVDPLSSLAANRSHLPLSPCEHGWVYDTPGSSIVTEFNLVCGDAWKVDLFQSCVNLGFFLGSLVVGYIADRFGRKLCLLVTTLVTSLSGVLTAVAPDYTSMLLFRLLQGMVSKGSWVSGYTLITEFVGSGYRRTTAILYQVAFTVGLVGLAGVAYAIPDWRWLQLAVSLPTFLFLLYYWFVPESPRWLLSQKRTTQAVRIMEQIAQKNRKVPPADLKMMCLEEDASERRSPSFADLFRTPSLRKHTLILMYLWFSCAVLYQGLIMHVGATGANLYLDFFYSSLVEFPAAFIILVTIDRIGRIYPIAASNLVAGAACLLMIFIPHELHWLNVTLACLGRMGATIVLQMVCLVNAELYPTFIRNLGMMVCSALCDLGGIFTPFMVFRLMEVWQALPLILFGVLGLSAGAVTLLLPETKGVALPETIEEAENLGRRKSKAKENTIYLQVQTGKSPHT

[5] = substrate: CCCC[N+](CCCC)(CCCC)CCCC; assay: cells, lysate or membranes named
[6] = substrate: C[N+](C)(C)CCO; assay: cells, lysate or membranes named

## Cc1ncc(C[n+]2csc(CCO)c2C)c(N)n1 [THIAMINE ION]
[1]
  activity at 10000 uM: 0%

## C=C[C@H]1C[N@@]2CC[C@H]1C[C@@H]2[C@@H](O)c1ccnc2ccc(OC)cc12 [QUINIDINE]
[2]
  activity at 1000 µM: 0%

## CNC(=O)c1cccnc1 [NICOTINYL METHYLAMIDE]
[3]
  activity at 10000 uM: 0%

## C[N+](C)(C)C.[Cl-] [TETRAMETHYLAMMONIUM]
[4]
  Activity: 0%

B1: Solute carrier family 22 member 1 (Mus musculus) (protein)
chain: MPTVDDVLEHVGEFGWFQKQAFLLLCLISASLAPIYVGIVFLGFTPDHHCRSPGVAELSQRCGWSPAEELNYTVPGLGSAGEASFLSQCMKYEVDWNQSTLDCVDPLSSLAANRSHLPLSPCEHGWVYDTPGSSIVTEFNLVCGDAWKVDLFQSCVNLGFFLGSLVVGYIADRFGRKLCLLVTTLVTSLSGVLTAVAPDYTSMLLFRLLQGMVSKGSWVSGYTLITEFVGSGYRRTTAILYQVAFTVGLVGLAGVAYAIPDWRWLQLAVSLPTFLFLLYYWFVPESPRWLLSQKRTTQAVRIMEQIAQKNRKVPPADLKMMCLEEDASERRSPSFADLFRTPSLRKHTLILMYLWFSCAVLYQGLIMHVGATGANLYLDFFYSSLVEFPAAFIILVTIDRIGRIYPIAASNLVAGAACLLMIFIPHELHWLNVTLACLGRMGATIVLQMVCLVNAELYPTFIRNLGMMVCSALCDLGGIFTPFMVFRLMEVWQALPLILFGVLGLSAGAVTLLLPETKGVALPETIEEAENLGRRKSKAKENTIYLQVQTGKSPHT
[5]
  Km: 43 µM
[6]
  Km: 42 µM
